Results published in article PMC10945501, “Development and In Vivo Evaluation of Small-Molecule Ligands for Positron Emission Tomography of Immune Checkpoint Modulation Targeting Programmed Cell Death 1 Ligand 1” (Journal of Medicinal Chemistry, 2024).
Where two headings read alike, the source gives them in different places.

Experiments:
human PD-L1 = molecular target: T1, human PD-L1 (Homo sapiens, UniProt Q9NZQ7); test: HTRF PD-1/PD-L1 binding assay (cell-free)
T1 construct: purchased Cisbio Bioassays SAS, Codolet, France 64PD1PEG
T1 sequence (Q9NZQ7 19-238 limits assumed): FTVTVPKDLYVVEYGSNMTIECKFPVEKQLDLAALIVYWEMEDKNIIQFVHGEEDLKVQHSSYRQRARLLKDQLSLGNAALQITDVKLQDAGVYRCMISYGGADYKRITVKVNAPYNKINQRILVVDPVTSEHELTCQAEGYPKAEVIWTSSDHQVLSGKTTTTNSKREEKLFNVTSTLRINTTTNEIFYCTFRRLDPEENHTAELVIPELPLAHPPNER

[1] = Lipophilicity by HPLC method (μHPLC logD); conditions: for μHPLC logD: pH 7.4; for chromatographic logD: pH 7.4, μHPLC logD
[2] = cell-free competitive PD-1/PD-L1 HTRF, mean ± SD, read-out: IC50 (hPD-L1 binding affinity, HTRF)
[3] = no full dose–response curves observed, values are relative IC50, read-out: relative IC50 (hPD-L1 binding affinity, HTRF)

| IC50 (human PD-L1; [2]) [nM] | IC50 (human PD-L1; [3]) [nM] | μHPLC logD [1] | chromatographic logD [1] | fold reduction of affinity, pyrrole at R1 vs 1,4-benzodioxanyl analogue (human PD-L1; IC50 ratio, pairs 4c vs 4m, 4e vs 4n, 4f vs 4o, 5c vs 5f) [fold] | Compound |
| --- | --- | --- | --- | --- | --- |
| > 50000 |  | 2.3 ± 0.1 | 2.33 ± 0.14 |  | CC(=O)NCCNCc1cnc(OCc2cccc(-c3ccccc3)c2C)c(Cl)c1 [Compound 4a, N-(2-(((5-Chloro-6-((2-methyl-[1,1′-biphenyl]-3-yl)methoxy)pyridin-3-yl)methyl)amino)ethyl)acetamide] |
| 6.7 ± 0.4 |  |  | 3.46 ± 0.05 |  | Cc1c(COc2cc(OCc3cccc(C#N)c3)c(CN[C@H](CO)C(=O)O)cc2Cl)cccc1-c1ccccc1 [Compound 4b, (5-Chloro-2-((3-cyanobenzyl)oxy)-4-((2-methyl-[1,1′-biphenyl]-3-yl)methoxy)benzyl)-D-serine] |
| 6.1 ± 0.3 |  |  | 3.25 ± 0.03 |  | Cc1c(COc2cc(OCc3ccnc(C#N)c3)c(CN[C@H](CO)C(=O)O)cc2Cl)cccc1-c1ccc2c(c1)OCCO2 [Compound 4c, (5-Chloro-2-((2-cyanopyridin-4-yl)methoxy)-4-((3-(2,3-dihydrobenzo[b][1,4]dioxin-6-yl)-2-methylbenzyl)oxy)benzyl)-D-serine] |
| 9.2 ± 0.6 |  | 4.5 ± 0.2 | 4.45 ± 0.2 |  | CC(=O)NCCNCc1cc(Cl)c(OCc2cccc(-c3ccc4c(c3)OCCO4)c2C)cc1OCc1ccnc(C#N)c1 [Compound 4d, N-(2-((5-Chloro-2-((2-cyanopyridin-4-yl)methoxy)-4-((3-(2,3-dihydrobenzo [b][1,4]dioxin-6-yl)-2-methylbenzyl)oxy)benzyl)amino)ethyl)acetamide] |
| 7.7 ± 0.6 |  | 4.7 ± 0.2 | 4.71 ± 0.24 |  | Cc1c(COc2cc(OCc3ccnc(C#N)c3)c(CNCCO)cc2Cl)cccc1-c1ccc2c(c1)OCCO2 [Compound 4e, 4-((4-Chloro-5-((3-(2,3-dihydrobenzo[b][1,4]dioxin-6-yl)-2-methylbenzyl)oxy)-2-(((2-hydroxyethyl)amino)methyl)phenoxy)methyl)picolinonitrile] |
| 4.9 ± 0.3 |  |  | 3.64 ± 0.09 |  | Cc1c(COc2cc(OCc3ccnc(C#N)c3)c(CN3CCCC[C@H]3C(=O)O)cc2Cl)cccc1-c1ccc2c(c1)OCCO2 [Compound 4f, (S)-1-(5-Chloro-2-((2-cyanopyridin-4-yl)methoxy)-4-((3-(2,3-dihydrobenzo [b][1,4]dioxin-6-yl)-2-methylbenzyl)oxy)benzyl)piperidine-2-carboxylic Acid] |
| 46 ± 5 |  |  | 3.42 ± 0.05 |  | Cc1c(COc2cc(OCc3ccnc(C#N)c3)c(CNCCOCCOCCOCCOCCC(=O)O)cc2Cl)cccc1-c1ccc2c(c1)OCCO2 [Compound 4g, 1-(5-Chloro-2-((2-cyanopyridin-4-yl)methoxy)-4-((3-(2,3-dihydrobenzo [b][1,4]dioxin-6-yl)-2-methylbenzyl)oxy)phenyl)-5,8,11,14-tetraoxa-2-azaheptadecan-17-oic Acid] |
| 8.2 ± 1.8 |  |  | 3.42 ± 0.05 |  | C#CCC[C@H](NCc1cc(Cl)c(OCc2cccc(-c3ccc4c(c3)OCCO4)c2C)cc1OCc1ccnc(C#N)c1)C(=O)O [Compound 4h, (S)-2-((5-Chloro-2-((2-cyanopyridin-4-yl)methoxy)-4-((3-(2,3-dihydrobenzo [b][1,4]dioxin-6-yl)-2-methylbenzyl)oxy)benzyl)amino)hex-5-ynoic Acid] |
| 3.7 ± 0.5 |  |  | 3.47 ± 0.06 |  | C#CCOC(=O)NCCCC[C@H](NCc1cc(Cl)c(OCc2cccc(-c3ccc4c(c3)OCCO4)c2C)cc1OCc1ccnc(C#N)c1)C(=O)O [Compound 4i, N^2-(5-Chloro-2-((2-cyanopyridin-4-yl)methoxy)-4-((3-(2,3-dihydrobenzo[b][1,4]dioxin-6-yl)-2-methylbenzyl)oxy)benzyl)-N^6-((prop-2-yn-1-yloxy)carbonyl)-L-lysine] |
| 11 ± 1 |  | 4.7 ± 0.2 | 4.73 ± 0.24 |  | CC(=O)NCCNCc1cc(Cl)c(OCc2cccc(-c3ccc4c(c3)OCCO4)c2C)cc1OCc1cccc(C#N)c1 [Compound 4j, N-(2-((5-Chloro-2-((3-cyanobenzyl)oxy)-4-((3-(2,3-dihydrobenzo[b][1,4]dioxin-6-yl)-2-methylbenzyl)oxy)benzyl)amino)ethyl)acetamide] |
| 50 ± 7 |  | 4.2 ± 0.2 | 4.21 ± 0.16 |  | CC(=O)NCCNCc1cc(Cl)c(OCc2cccc(-c3ccc4c(c3)OCCO4)c2C)cc1OCc1cocn1 [Compound 4k, N-(2-((5-Chloro-4-((3-(2,3-dihydrobenzo[b][1,4]dioxin-6-yl)-2-methylbenzyl)oxy)-2-(oxazol-4-ylmethoxy)benzyl)amino)ethyl)acetamide] |
| 16 ± 3 |  |  | 3.39 ± 0.04 |  | Cc1c(COc2cc(OCc3cocn3)c(CN3CCCC[C@H]3C(=O)O)cc2Cl)cccc1-c1ccc2c(c1)OCCO2 [Compound 4l, (S)-1-(5-Chloro-4-((3-(2,3-dihydrobenzo[b][1,4]dioxin-6-yl)-2-methylbenzyl)oxy)-2-(oxazol-4-ylmethoxy)benzyl)piperidine-2-carboxylic Acid] |
| 6 ± 1 |  |  | 2.83 ± 0.04 | 1.03 | Cc1c(COc2cc(OCc3ccnc(C#N)c3)c(CN[C@H](CO)C(=O)O)cc2Cl)cccc1-n1cccc1 [Compound 4m, (5-Chloro-2-((2-cyanopyridin-4-yl)methoxy)-4-((2-methyl-3-(1H-pyrrol-1-yl)benzyl)oxy)benzyl)-D-serine] |

The next lines start with the compound.

| Compound | IC50 (human PD-L1; [2]) [nM] | IC50 (human PD-L1; [3]) [nM] | μHPLC logD [1] | chromatographic logD [1] | fold reduction of affinity, pyrrole at R1 vs 1,4-benzodioxanyl analogue (human PD-L1; IC50 ratio, pairs 4c vs 4m, 4e vs 4n, 4f vs 4o, 5c vs 5f) [fold] |
| --- | --- | --- | --- | --- | --- |
| Cc1c(COc2cc(O)c(C=O)cc2Cl)cccc1-c1ccccc1 [Compound 2b, 5-Chloro-2-hydroxy-4-((2-methyl-[1,1′-biphenyl]-3-yl)methoxy)benzaldehyde] | > 100000 |  |  |  |  |
| Cc1c(COc2cc(O)c(C=O)cc2Cl)cccc1-c1ccc2c(c1)OCCO2 [Compound 2c, 5-Chloro-4-((3-(2,3-dihydrobenzo[b][1,4]dioxin-6-yl)-2-methylbenzyl)oxy)-2-hydroxybenzaldehyde] | > 100000 |  |  |  |  |
| Cc1c(COc2cc(OCc3cccc(C#N)c3)c(C=O)cc2Cl)cccc1-c1ccccc1 [Compound 3a, 3-((4-Chloro-2-formyl-5-((2-methyl-[1,1′-biphenyl]-3-yl)methoxy)phenoxy)methyl)benzonitrile] |  | 1300 |  |  |  |
| Cc1c(COc2cc(OCc3ccnc(C#N)c3)c(C=O)cc2Cl)cccc1-c1ccc2c(c1)OCCO2 [Compound 3b, 4-((4-Chloro-5-((3-(2,3-dihydrobenzo[b][1,4]dioxin-6-yl)-2-methylbenzyl)oxy)-2-formylphenoxy)methyl)picolinonitrile] |  | 207 ± 340 |  |  |  |
| Cc1c(COc2cc(OCc3cccc(C#N)c3)c(C=O)cc2Cl)cccc1-c1ccc2c(c1)OCCO2 [Compound 3c, 3-((4-Chloro-5-((3-(2,3-dihydrobenzo[b][1,4]dioxin-6-yl)-2-methylbenzyl)oxy)-2-formylphenoxy)methyl)benzonitrile] | > 5000 |  |  |  |  |
| Cc1c(COc2cc(OCc3cocn3)c(C=O)cc2Cl)cccc1-c1ccc2c(c1)OCCO2 [Compound 3d, 5-Chloro-4-((3-(2,3-dihydrobenzo[b][1,4]dioxin-6-yl)-2-methylbenzyl)oxy)-2-(oxazol-4-ylmethoxy)benzaldehyde] | > 5000 |  |  |  |  |
| Cc1c(COc2cc(OCc3ccnc(C#N)c3)c(C=O)cc2Cl)cccc1-n1cccc1 [Compound 3e, 4-((4-Chloro-2-formyl-5-((2-methyl-3-(1H-pyrrol-1-yl)benzyl)oxy)phenoxy)methyl)picolinonitrile] | > 5000 |  |  |  |  |
